Data reported in US12589130B2, “Aloe extracts for microbial neutralisation” (2QR RESEARCH B.V., priority 2020, dated 2026).

Test system: Staphylococcus aureus
Assay: Aggregation of fluorescently labelled microorganisms, MAC (Example 1)
Assay type: cell-based
Method: Microbial cells were fluorescently labelled with fluorescein isothiocyanate (FITC, Sigma-Aldrich, St Louis, MO, USA) or SYTO™ 24 green fluorescent nucleic acid stain (Thermo Fisher, Rockford, IL, USA). FITC labelling was performed by incubation in a 0.2 M NaHCO3 pH 9.5 buffer with a final concentration of 0.2 mg/ml FITC (from a 2 mg/ml FITC stock in DMSO) and shaking for 1 hour at 37° C. and subsequently extensively washing with phosphate buffered saline (PBS). SYTO-24 labelling was performed in PBS using a final 1 μM concentration of the dye for at least 30 minutes and subsequently washing with PBS. […] Aggregation was examined immediately or at a more convenient moment using a fluorescence microscope. […]
The Minimal Aggregation Concentration (MAC), the lowest concentration of polysaccharides still convincingly showing microbial aggregation, was determined by 2-fold serial dilutions and expressed in mg or microgram polysaccharides/ml. […] Quantification of samples was based on dry weight determination unless otherwise indicated.
10× concentrated Aloe vera leaf juice, a 10× decolorized liquid made from purified inner leaf fillet that contained not less than 10% polysaccharides, was purchased at a commercial supplier (ACTIValoe® Aloe vera Gel 10X-D, AloeCorp, Harlingen, TX, USA). […] The Minimal Aggregation Concentration (MAC) of the >12 kDa fraction was determined and compared to that of D-mannose.

`O=C[C@@H](O)[C@@H](O)[C@H](O)[C@H](O)CO` [D-mannose] was tested, and the MAC (Minimal Aggregation Concentration towards Staphylococcus aureus, mg polysaccharides/ml) was greater than 16 mg/mL and the aggregating activity (highest concentration tested (16 mg/ml)) was “did not have aggregating activity”.
